The text below walks through data of publication PMC3049593 (British Journal of Cancer, 2011).

The structures appear in SMILES notation.

What is called Cmax is the peak of the concentration-time curve. The term Tmax denotes the time at which the peak concentration occurs. In general, t½ refers to the time in which the quantity being followed falls by half. A higher t½ goes with slow loss. The term TGI denotes the reduction of tumour growth relative to the control group.

Data set [1] in a line: blood pharmacokinetics of [3H]-PG545 in Hep3b tumour-bearing mice. In kind it is in vivo. Particulars: for AUC0−t / Cmax / Tmax / t½: blood, 20 mg kg^−1 every 96 h. As to the method: Analysis of the tumour [^3H]-PG545 concentration vs time data required use of a more physiologically based PK model such that tumour concentrations were estimated from the tumour mass being perfused with blood containing [^3H]-PG545 and where the blood [^3H]-PG545 concentration changed over time. […]
(§1) Pharmacokinetic sampling and analysis
(§2) Samples were collected from three animals at each of four time points – 12 hours, 24 hours, 48 hours and 96 hours post-treatment. At each of these times, whole blood was collected by cardiac puncture and tumours were excised. After collection, 0.2 mL of whole blood was added to a glass scintillation vial to which 1 mL Solvable was added.
(§3) Samples were incubated for one hour at 55-60°C. 0.1 mL of 0.1 M EDTA-di-sodium salt solution and 0.3 mL to 0.5 mL of 30% hydrogen peroxide in 0.1 mL aliquots were added to the sample. Samples were gently agitated between additions to allow reaction foaming to subside. Samples were incubated for 30 minutes at room temperature. Vials were capped tightly and incubated again at 55 – 60 °C fo r 1 hour. Samples were cooled to room temperature and 15 mL of ULTIMA Gold added.
(§4) For tumour samples, 100 mg of tissue was placed in a 20 mL glass scintillation vial and 2 mL of Solvable added. The samples were incubated at 50 - 60 °C for 1 hour with occasional swirling. Samples were cooled to room temperature and for tumours, 0.3 mL of 30% hydrogen peroxide in three aliquots of 0.1 mL were added. The samples were again incubated at 50 - 60 °C for 1 hour with occasional swirling. Tumours samples were […]
(§5) then treated with 15 mL of ULTIMA Gold. To count radioactivity, a Tri-Carb 2800TR liquid scintillation counter from PerkinElmer was used at the Institute of Medical and Veterinary Science (Adelaide, Australia). All parameters were calculated using the QuantaSmart software package. Where DPM values were missing, the following procedure was performed. Efficiency was calculated by generating an efficiency curve using complete samples (where efficiency = Counts Per Minute/Disintegrations Per Minute), and plotted these values against the provided corresponding transformed spectral index of external standard (tSIE) values.
(§6) The pharmacokinetic parameters, Cmax (maximum plasma concentration), Tmax (time of maximum plasma concentration), kelim (terminal elimination rate constant), t½ (half-life), and AUC (area under the concentration versus time curve) were derived from the blood [3H]-PG545 concentration versus time data using model independent methods. In addition, a linear pharmacokinetic model comprising mono-exponential absorption and bi-exponential disposition and elimination was used to simultaneously model the mean blood concentration versus time data for [3H]-PG545 and the following pharmacokinetic parameters, Cmax and Tmax, t½, AUC0-t and AUC0-∞ for [3H]-PG545 were estimated.
(§7) Analysis of the tumour [3H]-PG545 concentration versus time data required use of a more physiologically-based pharmacokinetic model such that tumour concentrations were estimated on the basis of the tumour mass being perfused with blood containing [3H]- […]
(Applied Biosystems) preceded by a Spark Symbiosis Direct On-line Solid Phase Extraction system. Briefly, using a deep-well 96-well plate, 100 µL plasma was mixed with 10 µL standard solution (or water for unknowns) plus 10 µL internal standard solution (PG562 at 100 µg/mL (deionised water for double blank)).This was then mixed for at least 1 min (Ratek Platform Shaker) and incubated at room temperature for 20 mins prior to addition of 25 µL SDS solution (10 mg SDS in 1 mL deionised water) + 75 µL CHAPS solution (50 mg CHAPS in 1 mL deionised water) and 50 µL Proteinase K solution (10 mg Proteinase K in 1 mL 5 mM CaCl2). Following a mixing step this was incubated at 37°C for 2.5 hours prior to addition of 250 µL deionised water and placed into the Spark Symbiosis system.
The Tmax and Cmax on each sampling day were determined for each dose level by visual inspection of the mean data. […]

Data set [2] is described as follows: tumour and tissue pharmacokinetics of [3H]-PG545 in Hep3b tumour-bearing mice. In kind it is in vivo. To be noted: for tumour AUC0-t / tumour Cmax: model independent analysis; for Kt, rate constant of uptake from the tumor / t½b / t½t: one compartment model.
Excerpt: Analysis of the tumour [^3H]-PG545 concentration vs time data required use of a more physiologically based PK model such that tumour concentrations were estimated from the tumour mass being perfused with blood containing [^3H]-PG545 and where the blood [^3H]-PG545 concentration changed over time.
Table S1 – Pharmacokinetic analysis of mean tumour [3H]-PG545 concentrations in […]
Model Independent Analysis of Mean Tumor [3H]-PG545 Conc. Versus Time Data Parameter First Dose Second Dose Third Dose Notes: Cmax and Tmax were derived from visual inspection of the data following Cmax (µ g/ml) 37 45 44 s.c. administration of up to three doses of […]
One Compartment Model derived from Mean Tumor [3H]-PG545 Conc. Versus Time Data Parameter First Dose Second Dose Third Dose Notes: Based on assumptions including - 1) All processes are linear with no […]
timeframe of the experiment.
3) Tumor [3H]-PG545 conc is driven by the blood conc of [3H]-PG545 t½t (h) 15.7 15.4 16.3 4) Rate of uptake is proportional to blood […]
5) Rate of return from tumor to blood is proportional to tumor conc.
Kb is the rate constant of uptake into the tumor, in h-1
Kt is the rate constant of uptake from the tumor, in h-1 […]
as §1, §2, §3, §4, §5, §6, §7

The test system of the next data set is Hep3b2.1-7 tumours. In words: orthotopic Hep3b2.1-7 human liver cancer model. The data set is classed as in vivo, mice. To be noted: 30 mg kg^−1 daily. The procedure: (§8) In the orthotopic Hep3b2.1-7 human liver cancer model, treatment of mice (n=10) began 14 days after inoculation of 2.5 × 10^6 cells. […] To initiate tumour xenografts, MDA-MB-231, PC3, Cal27 and HepG2 cells were injected s.c. into nude mice (n=8) at 4, 5, 2 and 2 × 10^7 cells ml^−1, respectively. […] In the B16F0 lung metastasis model, 2 × 10^5 cells were injected via the tail vein of C57Bl6 mice (n=8). […] Surface lung macrometastases were counted for each group (n=9) upon study termination. In the intrasplenic HT-29 xenograft model, 1 × 10^6 cells in 100 μl were injected into the spleen. […] Solid tumours were measured in two dimensions (length and width) and the tumour volume (cm^3) was calculated using the equation: V=length × width^2 × π/6. The anti-tumour activity was expressed as percent tumour growth inhibition (%TGI). Further details are available in Supplementary Methods. […]
In the Hep3b2.1-7 model, the cells resuspended in HBSS:MatrigelTM (1:1, v/v) to a final concentration of 5 x 10^8 cells/mL were inoculated following an incision into the skin directly over the liver to expose the main lobe of the liver. The needle was introduced into the main lobe of the liver, where 2.5 x 106 Hep3b2.1-7 cells (in 5 µL with 50% Matrigel) were discharged. The treatment of mice began 24 days after inoculation of the […]
either a once or twice weekly dosing schedule (see figure legends for dose schedules in each study) for up to three weeks. […]
(§9) efficacy/PK study) using either a once or twice weekly dosing schedule (see figure legends for dose schedules in each study) for up to three weeks. […]
(§10) In relevant models, solid tumours were measured in two dimensions (length and width) and the tumour volume (mm3) calculated using the equation V = length × width2 × π/6.The anti-tumour activity was assessed by the comparison of the mean tumour volume of the treated groups to the mean tumour volume of the control group and expressed as the percent Tumour Growth Inhibition (TGI) using the equation:
(§11) %TGI = (1-((VendPG545 - VstartPG545) / (VendControl - VstartControl)))*100 VendPG545 = Ending Tumour Volume of PG545-treated animal
(§12) VstartPG545 = Starting Tumour Volume of PG545-treated animal
(§13) VendControl = Ending Tumour Volume of Control animal
(§14) VstartControl = Starting Tumour Volume of Control animal […]
(§15) After collection, 0.2 mL of […]
(§16) whole blood was added to a glass scintillation vial to which 1 mL Solvable was added.
Samples were incubated for one hour at 55-60°C. 0.1 mL of 0.1 M EDTA-di-sodium salt solution and 0.3 mL to 0.5 mL of 30% hydrogen peroxide in 0.1 mL aliquots were added to the sample. Samples were gently agitated between additions to allow reaction foaming to subside. Samples were incubated for 30 minutes at room temperature. […]

Data set [3] deals with LL/2 tumours and lung metastases. In words: syngeneic Lewis Lung Carcinoma (LL/2) tumour growth and spontaneous metastasis model. The data set is classed as in vivo, mice. As to the method:
as §8, §9
In the LL/2 mouse model, treatment of mice commenced on the day of inoculation (Day 0). Mice inoculated subcutaneously were treated with either Vehicle Control […]
once weekly or Sorafenib (60mg/kg, once daily, p.o.). The treatments were continued for three weeks. The lungs were excised from all mice at the time of culling for metastasis […]
count determination. […]
as §10, §11, §12, §13, §14, §15, §16, §3, §4

Where [4] appears, read: 20 mg kg^−1 s.c. every 96 h, three doses.

For `[3H][C@H]1[C@H](O[C@@H]2O[C@H](COS(=O)(=O)[O-])[C@@H](O[C@H]3O[C@H](COS(=O)(=O)[O-])[C@@H](O[C@H]4O[C@H](COS(=O)(=O)[O-])[C@@H](O[C@H]5O[C@H](COS(=O)(=O)[O-])[C@@H](OS(=O)(=O)[O-])[C@H](OS(=O)(=O)[O-])[C@H]5OS(=O)(=O)[O-])[C@H](OS(=O)(=O)[O-])[C@H]4OS(=O)(=O)[O-])[C@H](OS(=O)(=O)[O-])[C@H]3OS(=O)(=O)[O-])[C@H](OS(=O)(=O)[O-])[C@H]2OS(=O)(=O)[O-])C[C@@H]2CC[C@H]3[C@@H]4CC[C@H]([C@H](C)CCCC(C)C)[C@@]4(C)CC[C@@H]3[C@@]2(C)[C@H]1[3H].[Na+].[Na+].[Na+].[Na+].[Na+].[Na+].[Na+].[Na+].[Na+].[Na+].[Na+].[Na+].[Na+]` [[^3H]-PG545], in data set [1] (setting [4]), the “mean blood Cmax (range over doses)” value is 25900 to 29000 ng/mL and the “mean blood Tmax (range over doses)” value lay within 2 to 6 h. Also, the “mean elimination half-life (t½) in blood” value in data set [1] (20 mg kg^−1 s.c., up to three bolus doses at 96 h intervals) is given as above 50 h. For the same compound, in data set [1] (first dose), the “AUC0−t” value was 991 µg·h/mL, the Cmax came to 28000 ng/mL, the Tmax was determined as 4 h and the t½ amounted to 65 h. Moreover, in data set [1] (second dose), the “AUC0−t” value is 1208 µg·h/mL, the Cmax worked out at 26000 ng/mL and the Tmax is reported as 2 h. In addition, in data set [1] (third dose), the “AUC0−t” value was found to be 1556 µg·h/mL, the Cmax worked out at 29000 ng/mL, the Tmax was 6 h and the t½ is recorded as 117 h. Besides, in data set [2] (following a single dose), the Cmax in kidney was 39 µg/g and the Cmax in liver came to 106 µg/g. Besides, in data set [2] (first dose), the “tumour AUC0-t” value was 2800 µ g.h/g; the “tumour Cmax” value is 37 µ g/ml; the “Kt, rate constant of uptake from the tumor” value (from here on “Kt, rate constant of uptake”) came out at 0.0441 h⁻¹; the t½b is 12.8 h. In addition, the t½t in data set [2] (first dose) amounted to 15.7 h. Also, in data set [2] (second dose), the “tumour AUC0-t” value worked out at 3662 µ g.h/g; the “tumour Cmax” value came to 45 µ g/ml; the “Kt, rate constant of uptake” value stood at 0.0449 h⁻¹; the t½b was determined as 13.3 h. Besides, in data set [2] (second dose), the t½t turned out to be 15.4 h. Besides, in data set [2] (third dose), the “tumour AUC0-t” value was 3304 µ g.h/g; the “tumour Cmax” value turned out to be 44 µ g/ml; the “Kt, rate constant of uptake” value came out at 0.0425 h⁻¹; the t½b turned out to be 16.5 h. Besides, the t½t in data set [2] (third dose) amounted to 16.3 h. In data set [2] (one-compartment PK model), the “t½b, uptake from the bloodstream into the tumour (range over doses)” value is 12.8 to 16.5 h. In addition, in data set [2] (tumour tissue, 20 mg kg^−1 s.c. every 96 h, three doses), the “tumour Cmax (range over doses)” value is 36.6 to 45.1 µg/g. Besides, the “tumour Tmax” value in data set [2] (tumour tissue, one dose (first dose)) was found to be 12 h. The “tumour Tmax” value in data set [2] (tumour tissue, three doses (third dose)) is given as at least 96 h. In addition, the “tumour Tmax” value in data set [2] (tumour tissue, two doses (second dose)) stood at 48 h.
The compound `CNC(=O)c1cc(Oc2ccc(NC(=O)Nc3ccc(Cl)c(C(F)(F)F)c3)cc2)ccn1` [sorafenib, reference compound] came in with a TGI in the data set on Hep3b2.1-7 tumours of 58%. Further, in data set [3] (60 mg kg^−1 daily), the effect on metastasis result was “no effect on metastasis”. The “TGI (primary tumour)” value in data set [3] (60 mg kg^−1 qd) came to 44%.
